{"source": "patent US6451806B2", "about": "“Methods and compositions involving opioids and antagonists thereof” (Adolor Corporation, priority 1999, dated 2002)", "key": {"solubility in water": {"assay": "solubility in water", "type": "physicochemical", "details": "except at low or high pH conditions", "description": "Zwitterionic character may be inherent to the compound, and may impart desirable properties such as poor systemic absorption and sustained local affect on the gut following oral administration."}, "[1]": {"test_system": "morphine-induced constipation in mice", "assay": "mouse model of opioid-induced constipation (charcoal meal transit time)", "type": "in vivo", "description": "This establishes that the compound of formula (II) is a gut-selective and peripherally-selective mu antagonist compound. In addition, it is orally effective in preventing or reversing morphine-induced constipation in mice."}, "[2]": {"test_system": "loperamide-induced slowing of gut motility", "assay": "clinical crossover study of loperamide-induced slowing of gut motility (colonic transit time)", "type": "in vivo", "details": "man, 8 mg b.i.d. oral loperamide", "procedure": "A clinical study in man was an 8 subject multiple crossover study of the effects of oral pre-treatment with placebo, 2.4 mg or 24 mg t.i.d. of the compound of formula (II) on slowing of gut motility induced with 8 mg of b.i.d. of oral loperamide (a peripheral mu opioid agonist). […] The graph presents the effects of 2.4 or 24 mg of the compound of formula (II) on colonic transit time (in hours) following administration of loperamide. The loperamide dose was constant in the three treatment groups."}, "[3]": {"test_system": "effect of intravenous morphine sulfate on upper gastrointestinal motility", "assay": "Phase I study in healthy volunteers with intravenous morphine sulfate", "type": "in vivo, humans", "details": "4 mg oral dose"}, "[4]": {"test_system": "inhibition of gastrointestinal transit produced by MS Contin", "assay": "Phase I study in volunteers with oral sustained-release morphine (MS Contin)", "type": "in vivo, humans", "details": "3 mg oral three times daily for 4 days, MS Contin 30 mg twice daily", "description": "Pupil size was used as a surrogate measure of the morphine's analgesic activity."}, "[5]": {"test_system": "analgesia and pupil constriction produced by intravenous morphine sulfate", "assay": "Phase II clinical study, third molar extraction dental surgery, intravenous morphine sulfate", "type": "in vivo, humans", "details": "4 mg total oral dose"}, "[6]": {"test_system": "postsurgical opioid effects, postoperative nausea and vomiting", "assay": "Phase II clinical study, partial colectomy or hysterectomy, postoperative nausea and vomiting (VAS)", "type": "in vivo, humans", "details": "for patients reporting VAS nausea scores over 20 / patients exhibiting no nausea (highest VAS score=0): postoperative morphine or meperidine", "procedure": "A 78 patient Phase II clinical study was conducted which compared two doses (2 mg and 12 mg) of the compound of formula (II) versus placebo in patients undergoing partial colectomy or simple or radical hysterectomy surgical procedures. All patients in this clinical study received morphine or meperidine infusions to treat postoperative pain. Oral doses of compound (II) or placebo were administered to block postsurgical opioid effects, including postoperative nausea and vomiting. Results of this study comparing patients receiving 12 mg of compound (II) and placebo are depicted graphically in FIGS. 2A and 2B.\nThe intensity of nausea was evaluated by patients on a 100-point visual analog scale (VAS) with VAS=0 being no nausea and VAS=100 being the worst nausea that a patient could imagine. The highest VAS nausea score (worst nausea) recorded for each patient was computed and the distributions of these maximum values were compared among the treatment groups. […] The overall treatment differences in the distributions were significant when compared using a Kruskal-Wallis test (P=0.0184). The improved outcomes observed in the 12 mg per day dose group are evident in the pairwise comparisons based on the Wilcoxon rank sum tests."}, "[7]": {"test_system": "opioid-induced nausea and pruritus", "details": "Yuan, C.-S. et al. Drug and Alcohol Dependence 1998, 52, 161; cited from earlier work"}}}
{"smiles": "C[C@H]1CN(C[C@H](Cc2ccccc2)C(=O)NCC(=O)O)CCC1(C)c1cccc(O)c1", "note": "(some centres unmarked) [compound of formula (II)]", "values": [{"measurement": "solubility in water", "setting": "solubility in water", "value": "low solubility in water"}, {"measurement": "reversal of morphine-induced constipation", "setting": "[1]; chronic morphine treated mice", "value": "even more potent in reversing morphine-induced constipation"}, {"measurement": "prevention of acute morphine-induced constipation (charcoal meal transit time)", "setting": "[1]; mice, orally administered", "value": "prevented acute morphine-induced constipation"}, {"measurement": "loperamide-induced slowing of gut motility (colonic transit time)", "setting": "[2]; 2.4 mg t.i.d. oral pre-treatment", "value": "prevented loperamide-induced slowing of gut motility"}, {"measurement": "loperamide-induced slowing of gut motility (colonic transit time)", "setting": "[2]; 24 mg t.i.d. oral pre-treatment", "value": "prevented loperamide-induced slowing of gut motility"}, {"measurement": "effect of intravenous morphine sulfate on upper gastrointestinal motility", "setting": "[3]; P<0.01", "value": "blocked the effect of intravenous morphine sulfate on upper gastrointestinal motility"}, {"measurement": "morphine-induced nausea", "setting": "[3]; P=0.07", "value": "trend toward antagonizing morphine-induced nausea"}, {"measurement": "MS Contin effects on pupil size (surrogate of analgesic activity)", "setting": "[4]", "value": "without antagonizing MS Contin® effects on pupil size"}, {"measurement": "inhibition of gastrointestinal transit produced by oral sustained-release morphine", "setting": "[4]", "value": "blocked the inhibition of gastrointestinal transit"}, {"measurement": "patients withdrawn for adverse effects", "setting": "[5]", "value": "No patients were withdrawn for adverse effects"}, {"measurement": "antagonism of analgesia produced by intravenous morphine sulfate", "setting": "[5]; patients", "value": "did not antagonize"}, {"measurement": "antagonism of pupil constriction produced by intravenous morphine sulfate", "setting": "[5]; patients", "value": "did not antagonize"}, {"measurement": "reduction in postoperative pain control", "setting": "[6]; 2 mg and 12 mg oral doses", "value": "None of the patients"}, {"measurement": "serious adverse side effects judged related to the compound", "setting": "[6]; 2 mg and 12 mg oral doses", "value": "No patients experienced serious adverse side effects"}, {"measurement": "patients reporting VAS nausea scores over 20", "setting": "[6]; 2 mg dose group", "value": 67, "unit": "%"}, {"measurement": "patients exhibiting no nausea (highest VAS score=0)", "setting": "[6]; 2 mg per day oral", "value": "approximately 25%"}, {"measurement": "patients exhibiting no nausea (highest VAS score=0)", "setting": "[6]; 12 mg per day oral", "value": "~40", "unit": "%"}, {"measurement": "patients reporting VAS nausea scores over 20", "setting": "[6]; 12 mg per day oral", "value": 27, "unit": "%"}, {"measurement": "distribution of highest VAS nausea score compared to placebo", "setting": "[6]; 12 mg per day, Wilcoxon rank sum test, P=0.0072", "value": "statistically significantly improved"}]}
{"smiles": "C[N@+]1(CC2CC2)CC[C@]23c4c5ccc(O)c4O[C@H]2C(=O)CC[C@@]3(O)[C@H]1C5", "note": "[methylnaltrexone]", "values": [{"measurement": "incidence of opioid-induced nausea and pruritus", "setting": "[7]", "value": "effectively reduce the incidence of opioid-induced nausea and pruritus"}]}
